The source made the active and inactive calls.
Assays:
[1] = target: Lytic switch protein BZLF1 (Epstein-Barr virus (strain B95-8) (HHV-4) (Human herpesvirus 4), UniProt P03206); assay: inhibition of BZLF1 ZTA DNA binding – biochemical, fluorescence polarization, Epstein-Barr virus, 1536-well, counter-screen for EBNA-1 inhibitor project, dose response (AID 2377); set-up: species or system human gammaherpesvirus 4;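 further: fluorescence polarization of Cy5-labelled ZRE DNA probe bound by purified Zta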
[2] = target: Epstein-Barr nuclear antigen 1 (Epstein-Barr virus (strain B95-8) (HHV-4) (Human herpesvirus 4), UniProt P03211); assay: inhibition of EBV nuclear antigen 1 DNA binding – biochemical, fluorescence polarization, 1536-well, dose response (AID 2381); set-up: species or system human gammaherpesvirus 4;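 further: fluorescence polarization of a Cy5 DNA probe bound by EBNA-1 protein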
Bcl-2-related protein A1 [3] = target: T1, Bcl-2-related protein A1 (Mus musculus, UniProt Q07440); assay: small-molecule antagonists of Bfl-1/BH3 interaction – biochemical, TR-FRET, mouse Bfl-1, confirmation (AID 621);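 further: TR-FRET binding of GST-Bfl-1 to FITC-labelled Bid peptide via terbium antibody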
T1 sequence (Q07440 whole entry): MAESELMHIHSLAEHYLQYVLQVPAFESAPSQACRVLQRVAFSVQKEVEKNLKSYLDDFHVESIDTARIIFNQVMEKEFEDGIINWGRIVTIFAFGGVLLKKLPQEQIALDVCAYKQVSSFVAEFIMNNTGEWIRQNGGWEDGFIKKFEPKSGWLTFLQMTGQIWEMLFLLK

Bcl-2-related protein A1 [4] = target: T1, Bcl-2-related protein A1; assay: Bfl-1 binding inhibitors, SAR follow-up, biochemical, fluorescence polarization (AID 1070)
[5] = target: Glyceraldehyde-3-phosphate dehydrogenase (Homo sapiens, UniProt P04406)
Coagulation factor XII = target: T2, Coagulation factor XII (Homo sapiens, UniProt P00748); format: functional;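 further: activated factor XIIa alpha cleaving a fluorogenic AMC peptide substrate; inhibitor potency from loss of enzyme activity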
T2 sequence (P00748 whole entry): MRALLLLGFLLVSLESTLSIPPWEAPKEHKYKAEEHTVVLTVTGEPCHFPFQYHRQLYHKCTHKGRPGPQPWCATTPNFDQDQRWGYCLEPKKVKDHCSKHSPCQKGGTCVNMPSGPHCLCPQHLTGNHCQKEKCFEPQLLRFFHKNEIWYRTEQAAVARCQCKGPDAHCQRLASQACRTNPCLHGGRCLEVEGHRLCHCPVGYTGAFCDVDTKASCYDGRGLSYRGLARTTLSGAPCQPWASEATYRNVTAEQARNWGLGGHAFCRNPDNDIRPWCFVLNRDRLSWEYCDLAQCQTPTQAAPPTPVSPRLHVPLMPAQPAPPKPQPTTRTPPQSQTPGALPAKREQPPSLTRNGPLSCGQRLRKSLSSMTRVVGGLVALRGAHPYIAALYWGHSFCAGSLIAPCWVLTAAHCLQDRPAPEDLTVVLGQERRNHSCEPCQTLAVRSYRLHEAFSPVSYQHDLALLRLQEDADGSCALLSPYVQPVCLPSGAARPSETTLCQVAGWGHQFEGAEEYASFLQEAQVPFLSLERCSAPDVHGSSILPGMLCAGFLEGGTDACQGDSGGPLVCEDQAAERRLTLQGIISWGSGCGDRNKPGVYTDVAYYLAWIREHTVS

[6] = alpha-synuclein stem-loop luciferase translation blockers – H4 neuroglioma cells, luminescence, confirmation (AID 1988); format: functional, cell-based
cells = format: functional, cell-based
[7] = system: Streptococcus sp. 'group A'; assay: Streptococcus pyogenes SK(-)GAS viability under kanamycin – luminescence, BacTiterGlo, confirmation, counter-screen for streptokinase expression inhibitor project, dose response (AID 1900); format: functional, organism-based
[8] = Luminescence Cell-Based Dose Response HTS to Identify Inhibitors of 5'UTR Stem-Loop Driven Prion Protein mRNA Translation in H4 Neuroglioblastoma Cells. [Related pubchem assays: 1827 (Project Summary), 1813 (Primary HTS)]; format: functional
[9] = luciferase reporter signal reduction – luminescence, H4-C neuroglioblastoma cells, dose response (AID 2458); format: functional, cell-based;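 further: H4 neuroglioblastoma cells stably carrying a luciferase reporter gene fusion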
[10] = luciferase reporter signal suppression in cells – H4 neuroglioma cells, luminescence, dose response (AID 1990); format: functional, cell-based
[11] = alpha-synuclein stem-loop translation blockers – luminescence, H4 neuroglioblastoma cells, dose confirmation, confirmation (AID 2454); format: functional, cell-based;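 further: H4 neuroglioblastoma cells carrying an alpha-synuclein 5'UTR luciferase reporter; potency for inhibition of the luciferase signal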
Streptococcus = assay: GAS UMAA2166 growth inhibition – luminescence, BacTiterGlo, counter-screen for streptokinase expression inhibitor project, dose response (AID 1915); format: functional, organism-based;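 further: potency for reduction of bacterial viability or growth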
HEK293 = assay: Fluorescence-based counterscreen for potentiators or agonists of NPY-Y2: cell-based high-throughput dose response assay to identify inhibitors of cyclic nucleotide gated ion channel (CNGC) activity. In this assay, the parental HEK293 cell line transfected with a cyclic-nucleotide gated ion channel (CNGC)-based cAMP sensor is used to measure inhibition of isoproterenol-induced CNGC activity by test compound.; format: functional; details: Homo sapiens;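 further: stimulus is 1 µM isoproterenol at EC100 plus PDE inhibitor Ro 20-1724 at 25 µM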
[12] = target: Neuropeptide Y receptor type 1 (Homo sapiens, UniProt P25929); assay: Fluorescence-based counterscreen for agonists of NPY-Y2: cell-based high-throughput dose response assay for agonists of NPY-Y1.; format: functional
[13] = target: Neuropeptide Y receptor type 2 (Homo sapiens, UniProt P49146); assay: Fluorescence-based cell-based high-throughput dose response assay for agonists of NPY-Y2. [Related pubchem assays: 1703 (Screening assay (CNGC inhibitors).), 1359 (Screening assay (NPY-Y2 potentiators or agonists).), 1304 (Screening assay (NPY-Y1 potentiators or agonists).), 1710 (Screening assay (NPY-Y2 agonists).), 1791 (Summary AID.)]; format: functional
Protein skinhead-1 = target: T3, Protein skinhead-1 (Caenorhabditis elegans, UniProt P34707); format: functional
T3 sequence (P34707 whole entry): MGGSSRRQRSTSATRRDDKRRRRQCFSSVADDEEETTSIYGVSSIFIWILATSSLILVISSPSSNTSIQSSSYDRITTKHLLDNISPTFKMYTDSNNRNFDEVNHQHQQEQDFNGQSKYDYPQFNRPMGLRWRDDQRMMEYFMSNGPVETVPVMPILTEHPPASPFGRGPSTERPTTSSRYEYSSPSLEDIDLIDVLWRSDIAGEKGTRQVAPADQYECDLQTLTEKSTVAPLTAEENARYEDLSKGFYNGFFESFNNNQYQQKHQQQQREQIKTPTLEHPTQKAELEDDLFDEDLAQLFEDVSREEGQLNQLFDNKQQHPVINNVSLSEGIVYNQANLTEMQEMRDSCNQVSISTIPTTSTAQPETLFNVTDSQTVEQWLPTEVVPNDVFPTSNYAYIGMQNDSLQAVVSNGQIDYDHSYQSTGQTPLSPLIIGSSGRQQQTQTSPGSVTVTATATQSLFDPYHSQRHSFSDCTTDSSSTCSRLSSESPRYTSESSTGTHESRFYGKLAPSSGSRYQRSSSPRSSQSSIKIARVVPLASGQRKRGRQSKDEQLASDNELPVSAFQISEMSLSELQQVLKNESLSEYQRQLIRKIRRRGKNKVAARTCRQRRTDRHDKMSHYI

Epstein-Barr nuclear antigen 1, sequence (P03211 whole entry): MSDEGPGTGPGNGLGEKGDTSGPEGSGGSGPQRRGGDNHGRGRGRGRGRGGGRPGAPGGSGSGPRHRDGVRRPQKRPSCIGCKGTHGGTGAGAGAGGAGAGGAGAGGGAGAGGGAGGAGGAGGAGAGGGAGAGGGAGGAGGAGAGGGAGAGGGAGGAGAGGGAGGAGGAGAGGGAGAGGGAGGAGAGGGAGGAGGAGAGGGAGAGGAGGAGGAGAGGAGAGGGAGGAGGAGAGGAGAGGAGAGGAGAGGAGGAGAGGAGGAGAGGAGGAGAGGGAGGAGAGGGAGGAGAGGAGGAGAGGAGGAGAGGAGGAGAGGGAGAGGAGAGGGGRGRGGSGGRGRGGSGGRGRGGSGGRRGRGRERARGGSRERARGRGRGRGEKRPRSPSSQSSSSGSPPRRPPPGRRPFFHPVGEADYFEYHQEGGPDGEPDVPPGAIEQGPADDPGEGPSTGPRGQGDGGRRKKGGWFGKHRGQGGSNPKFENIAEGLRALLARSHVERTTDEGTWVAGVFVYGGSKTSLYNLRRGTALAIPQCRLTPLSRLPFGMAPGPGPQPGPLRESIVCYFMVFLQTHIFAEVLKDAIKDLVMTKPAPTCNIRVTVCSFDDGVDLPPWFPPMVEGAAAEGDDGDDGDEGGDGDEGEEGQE
Neuropeptide Y receptor type 2, sequence (P49146 whole entry): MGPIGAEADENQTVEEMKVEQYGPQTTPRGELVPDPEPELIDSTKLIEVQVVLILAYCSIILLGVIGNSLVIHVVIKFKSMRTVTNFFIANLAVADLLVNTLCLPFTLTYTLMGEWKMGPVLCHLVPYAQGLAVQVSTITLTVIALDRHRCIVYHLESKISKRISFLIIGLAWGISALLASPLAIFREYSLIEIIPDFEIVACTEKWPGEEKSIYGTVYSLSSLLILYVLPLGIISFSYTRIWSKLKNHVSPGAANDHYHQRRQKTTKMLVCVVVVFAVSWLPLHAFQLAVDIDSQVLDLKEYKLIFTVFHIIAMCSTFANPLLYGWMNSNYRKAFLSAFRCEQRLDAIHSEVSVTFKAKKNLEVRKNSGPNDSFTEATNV
Neuropeptide Y receptor type 1, sequence (P25929 whole entry): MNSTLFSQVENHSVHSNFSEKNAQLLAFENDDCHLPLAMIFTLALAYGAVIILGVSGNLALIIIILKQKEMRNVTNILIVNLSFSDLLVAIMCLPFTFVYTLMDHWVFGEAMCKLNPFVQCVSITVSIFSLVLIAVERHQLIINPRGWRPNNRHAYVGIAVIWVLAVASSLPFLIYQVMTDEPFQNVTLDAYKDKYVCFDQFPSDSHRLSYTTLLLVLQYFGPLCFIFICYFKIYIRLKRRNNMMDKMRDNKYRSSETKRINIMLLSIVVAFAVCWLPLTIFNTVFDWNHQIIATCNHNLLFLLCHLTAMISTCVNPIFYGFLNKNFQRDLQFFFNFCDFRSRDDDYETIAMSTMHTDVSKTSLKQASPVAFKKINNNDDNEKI
Lytic switch protein BZLF1, sequence (P03206 whole entry): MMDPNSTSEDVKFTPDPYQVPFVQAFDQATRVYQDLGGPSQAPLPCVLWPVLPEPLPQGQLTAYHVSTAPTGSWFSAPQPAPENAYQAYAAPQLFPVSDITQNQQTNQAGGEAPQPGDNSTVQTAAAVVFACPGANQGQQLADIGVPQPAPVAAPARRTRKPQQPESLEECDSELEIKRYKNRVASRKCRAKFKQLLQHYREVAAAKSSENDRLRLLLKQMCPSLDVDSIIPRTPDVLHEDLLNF
Glyceraldehyde-3-phosphate dehydrogenase, sequence (P04406 whole entry): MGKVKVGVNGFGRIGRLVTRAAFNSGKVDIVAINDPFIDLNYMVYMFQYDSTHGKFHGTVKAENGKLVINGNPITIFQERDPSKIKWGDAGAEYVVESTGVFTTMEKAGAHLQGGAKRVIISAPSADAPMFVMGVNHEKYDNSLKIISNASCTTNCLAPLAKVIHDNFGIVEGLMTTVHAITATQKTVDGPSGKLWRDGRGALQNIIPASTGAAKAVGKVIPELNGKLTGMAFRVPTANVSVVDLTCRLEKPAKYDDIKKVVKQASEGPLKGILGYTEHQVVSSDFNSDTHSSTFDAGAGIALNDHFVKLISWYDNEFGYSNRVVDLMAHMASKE

COc1cccc(N2CCN(S(=O)(=O)c3ccc(-c4cnc(C5CC5)o4)cc3)CC2)c1
IC50 [1]: > 111 µM (not active) | IC50 [2]: 6.91 µM (active)

O=C1C(Cl)=C(Cl)C(=O)N1c1cccc(Cl)c1
IC50 (Bcl-2-related protein A1 [3]): 5.17 µM (active) | IC50 (Bcl-2-related protein A1 [4]): 3.41 µM (active) | IC50 [5]: > 100 µM (not active)

COc1ccc(C2CC(C(F)(F)F)n3nc(C(=O)Nc4ccc5c(c4)OCO5)cc3N2)cc1 (stereo not given)
IC50 (Coagulation factor XII): > 50 µM (inactive) | IC50 [1]: > 111 µM (not active) | IC50 [2]: 9.48 µM (active)

CCc1ccc2c(c1)C1(NN=C(c3cccc4ccccc34)S1)C(=O)N2 (stereo not given)
EC50 [6]: < 0.1 µM (active) | EC50 (cells): 0.875 µM (active) | EC50 [7]: < 0.06 µM (active) | EC50 [8]: < 0.1 µM (active) | EC50 [9]: 1.25 µM (active) | EC50 [10]: 38.5 µM (active) | EC50 [11]: 2.85 µM (inconclusive) | EC50 (Streptococcus): 0.706 µM (active)

CCSc1nnc(NC(=O)CCNS(=O)(=O)c2cc(Br)cnc2N)s1
EC50 (HEK293): 9.32 µM (active) | EC50 [12]: 11.7 µM (not active) | EC50 [13]: 13.7 µM (not active)

CC(C)CC(NC(=O)c1ccc(Cl)cc1)C(=O)OCc1cc([N+](=O)[O-])cc2c1OCOC2 (stereo not given)
EC50 (HEK293): > 35.4 µM (not active) | EC50 [12]: > 35.4 µM (not active) | EC50 [13]: > 35.4 µM (not active)

Clc1ccc(-n2nnc(-c3cccnc3)n2)cc1Cl
IC50 (Bcl-2-related protein A1 [3]): > 100 µM (not active) | IC50 (Protein skinhead-1): 57.3 µM (inactive) | IC50 (Bcl-2-related protein A1 [4]): > 100 µM (not active)
